Laboratory results: patent EP1268431B1 (Wyeth, priority 2000, dated 2001)
Values joined by “and” are separate entries in the source; they are usually repeats but may differ in a detail not shown here. Identical values can stand only once. Like-named read-outs stand apart in the source and are kept apart here.

Legend:
[1] = biological target: T1, c-Src (Homo sapiens, UniProt P12931); experiment: c-Src Kinase Assay (ELISA format); type: biochemical
T1 construct: purchased Upstate Biotechnologies
Procedure: Inhibitors of Src (partially purified preparation purchased from Upstate Biotechnologies) tyrosine kinase activity are analyzed in an ELISA format. […] Horseradish Peroxidase (HRP)-conjugated anti-phosphotyrosine is used to detect phosphorylated peptide via a color reaction. Conditions recommended by the manufacturer are employed.
Reaction conditions: Five microliter aliquots of each compound prepared fresh at the time of the assay are added as a solution in 10mM HEPES pH 7.5, 10% DMSO to the reaction well. Thirty-five microliters of reaction mix containing Src, buffer and peptide/bovine serum albumin mix are added to the compound wells and incubated at 30°C for 10 minutes (reaction buffer: 50mM TrisHCl pH 7.5, 10mM MgCl2, 0.1mM EGTA, 0.5mM Na3VO4). The reaction is started by addition of 10 microliters of ATP, incubated at 30°C for 1 hour, and stopped by addition of 20 microliters of 0.5M EDTA. The reaction mixture with the phosphorylated peptide is then transferred to a streptavidin-coated microtiter plate (provided in the kit) and allowed to bind for 20 minutes. Unbound peptide and reaction mixture is decanted and the plate is washed with PBS six times. HRP-conjugated phosphotyrosine antibody supplied in the kit is incubated with the plate for one hour, then decanted. The plate is again washed with PBS six times.
Activity is determined as % inhibition as calculated by the formula: (1 - Abs/Abs(max)) x 100 = % inhibition.

[2] = tested on: Rat2 fibroblasts stably transformed with a plasmid containing a CMV promotor controlled v-Src/Hu c-Src fusion gene; experiment: Anchorage Independent Src-transformed Fibroblast Proliferation Assay
[3] = read-out: anch-indep src-tx fib IC50, suspension growth, MTS on Day 5
[4] = Rattus norvegicus, Rat2, 120 h, read-out: anch-indep src-tx fib IC50, suspension growth, MTS on Day 5

## 4-(2,4-Dichloro-5-methoxyanilino)-7-{5-[(4-hydroxy-1-piperidinyl)methyl]-2-thienyl}-3-quinolinecarbonitrile [Example 89]
[1]
  IC50: 0.52 nM and 0.84 nM
[2]; [3]
  IC50: 90 nM

## 4-(2.4-Dichloro-5-methoxyanilino)-7-(3-formyl)-3-guinolinecarbonitrile [Example 112]
[1]
  IC50: 36 nM
[2]; [3]
  IC50: 7300 nM

## 4-[(2,4-Dichloro-5-methoxyphenyl)amino]-7-[4-(4-morpholinyl)phenyl]-3-quinolinecarbonitrile [Example 128]
[1]
  IC50: 3.2 nM
[2]; [3]
  IC50: 640 nM

## N#Cc1cnc2cc(C=CCCCN3CCOCC3)ccc2c1Nc1ccc(Cl)cc1Cl (mixture of isomers) [Example 12, 4-(2,4-Dichloroanilino)-7-[(E/Z)-5-(4-morpholin)-1-pentenyl]-3-quinolinecarbonitrile]
[1]
  IC50: 77 nM
[2]; [4]
  IC50: > 10000 nM

## N#Cc1cnc2cc(C=CCCCCN3CCOCC3)ccc2c1Nc1ccc(Cl)cc1Cl (mixture of isomers) [Example 16, 4-(2,4-Dichloroanilino)-7-[(E/Z)-6-(4-morpholinyl)-1-hexenyl]-3-quinolinecarbonitrile]
[1]
  IC50: 44 nM
[2]; [4]
  IC50: > 10000 nM

## COc1cc(Nc2c(C#N)cnc3cc(-c4ccc(CN5CCCC5C(N)=O)cc4)ccc23)c(Cl)cc1Cl (stereo in doubt) [Example 84, (2R)-1-{4-[3-Cyano-4-(2,4-dichloro-5-methoxyanilino)-7-quinolinyl]benzyl}-2-pyrrolidinecarboxamide]
[1]
  IC50: 7.5 nM
[2]; Rattus norvegicus, Rat2, 120 h, read-out: anch-indep src-tx fib IC50
  IC50: 770 nM

## COc1cc(Nc2c(C#N)cnc3cc(-c4ccc(C5OCCO5)o4)ccc23)c(Cl)cc1Cl [Example 5, 4-(2,4-Dichloro-5-methoxyanilino)-7-[5-(1,3-dioxolan-2-yl)-2-furyl]-3-quinolinecarbonitrile]
[1]
  IC50: 4.3 nM
[2]; [4]
  IC50: 200 nM

## COc1cc(Nc2c(C#N)cnc3cc(-c4ccc(C=O)o4)ccc23)c(Cl)cc1Cl [Example 6, 4-(2,4-Dichloro-5-methoxyanilino)-7-(5-formyl-2-furyl)-3-quinolinecarbonitrile]
[1]
  IC50: 4 nM
[2]; [4]
  IC50: 1600 nM

## N#Cc1cnc2cc(-c3ccc(CCN4CCOCC4)s3)ccc2c1Nc1ccc(Cl)cc1Cl [Example 9, 4-(2,4-Dichloroanilino)-7-{5-[2-(4-morpholinyl)ethyl]-2-thienyl}-3-quinolinecarbonitrile]
[1]
  IC50: 6 nM
[2]; [4]
  IC50: 2700 nM

## CCN1CCN(Cc2cc(-c3ccc4c(Nc5ccc(Cl)cc5Cl)c(C#N)cnc4c3)cs2)CC1 [Example 10, 4-(2,4-Dichloroanilino)-7-{5-[(4-ethyl-1-piperazinyl)methyl]-3-thienyl}-3-quinolinecarbonitrile]
[1]
  IC50: 2.4 nM
[2]; [4]
  IC50: 900 nM

## N#Cc1cnc2cc(C#CCCCN3CCOCC3)ccc2c1Nc1ccc(Cl)cc1Cl [Example 11, 4-(2,4-Dichloroanilino)-7-[5-(4-morpholinyl)-1-pentynyl]-3-quinolinecarbonitrile]
[1]
  IC50: 43 nM
[2]; [4]
  IC50: > 10000 nM

## N#Cc1cnc2cc(-c3ccc(CN4CCOCC4)o3)ccc2c1Nc1ccc(Cl)cc1Cl [Example 13, 4-(2,4-Dichloroanilino)-7-[5-(4-morpholinylmethyl)-2-furyl]-3-quinolinecarbonitrile]
[1]
  IC50: 10.4 nM and 4 nM
[2]; [4]
  IC50: 1510 nM
[2]; [3]
  IC50: 1590 nM

## CN(C)CC#Cc1ccc2c(Nc3ccc(Cl)cc3Cl)c(C#N)cnc2c1 [Example 15, 4-(2,4-Dichloroanilino)-7-[3-(dimethylamino)-1-propynyl]-3-quinolinecarbonitrile]
[1]
  IC50: 63 nM
[2]; [4]
  IC50: > 10000 nM

## N#Cc1cnc2cc(-c3cc(CN4CCOCC4)c(CN4CCOCC4)s3)ccc2c1Nc1ccc(Cl)cc1Cl [Example 17, 7-[4,5-Bis(4-morpholinylmethyl)-2-thienyl]-4-(2,4-dichloroanilino)-3-quinolinecarbonitrile]
[1]
  IC50: 0.7 nM and 2.1 nM and 3.1 nM
[2]; [4]
  IC50: 310 nM

## CCN1CCN(Cc2cc(-c3ccc4c(Nc5cc(OC)c(Cl)cc5Cl)c(C#N)cnc4c3)cs2)CC1 [Example 19, 4-(2,4-Dichloro-5-methoxyanilino)-7-{5-[(4-ethyl-1-piperazinyl)methyl]-3-thienyl}-3-quinolinecarbonitrile]
[1]
  IC50: 2 nM and 1.7 nM
[2]; [4]
  IC50: 160 nM

## COc1cc(Nc2c(C#N)cnc3cc(-c4cc(CN5CCOCC5)c(CN5CCOCC5)s4)ccc23)c(Cl)cc1Cl [Example 20, 7-[4,5-Bis(4-morpholinylmethyl)-2-thienyl]-4-(2,4-dichloro-5-methoxyanilino)-3-quinolinecarbonitrile]
[1]
  IC50: 1.1 nM and 0.8 nM
[2]; [4]
  IC50: 40 nM
[2]; [3]
  IC50: 30 nM

## COc1cc(Nc2c(C#N)cnc3cc(-c4ccc(CCCCN5CCOCC5)s4)ccc23)c(Cl)cc1Cl [Example 22, 4-(2,4-Dichloro-5-methoxyanilino)-7-{5-[4-(4-morpholinyl)butyl]-2-thienyl}-3-quinolinecarbonitrile]
[1]
  IC50: 6.8 nM
[2]; [4]
  IC50: 600 nM

## COc1cc(Nc2c(C#N)cnc3cc(-c4ccc(CN5CCOCC5)s4)ccc23)c(Cl)cc1Cl [Example 23, 4-(2,4-Dichloro-5-methoxyanilino)-7-[5-(4-morpholinylmethyl)-2-thienyl]-3-quinolinecarbonitrile]
[1]
  IC50: 2 nM
[2]; [4]
  IC50: 90 nM

## COc1cc(Nc2c(C#N)cnc3cc(-c4csc(CN5CCOCC5)c4)ccc23)c(Cl)cc1Cl [Example 24, 4-(2,4-Dichloro-5-methoxyanilino)-7-[5-(4-morpholinylmethyl)-3-thienyl]-3-quinolinecarbonitrile]
[1]
  IC50: 2.1 nM and 3.7 nM
[2]; [3]
  IC50: 180 nM

## N#Cc1cnc2cc(-c3csc(CN4CCOCC4)c3)ccc2c1Nc1ccc(Cl)cc1Cl [Example 25, 4-(2,4-Dichloroanilino)-7-[5-(4-morpholinylmethyl)-3-thienyl]-3-quinolinecarbonitrile]
[1]
  IC50: 3.6 nM and 6 nM and 4.9 nM
[2]; [4]
  IC50: 1300 nM
[2]; [3]
  IC50: 930 nM

## COc1cc(Nc2c(C#N)cnc3cc(-c4cccc(CCN5CCOCC5)c4)ccc23)c(Cl)cc1Cl [Example 28, 4-(2,4-Dichloro-5-methoxyanilino)-7-{3-[2-(4-morpholinyl)ethyl]phenyl}-3-quinolinecarbonitrile]
[1]
  IC50: 25 nM
[2]; [4]
  IC50: 4100 nM

## COc1cc(Nc2c(C#N)cnc3cc(-c4ccc(CN5CCOCC5)cc4)ccc23)c(Cl)cc1Cl [Example 29, 4-(2,4-Dichloro-5-methoxyanilino)-7-[4-(4-morpholinylmethyl)phenyl]-3-quinolinecarbonitrile]
[1]
  IC50: 4.1 nM and 2.5 nM
[2]; [4]
  IC50: 540 nM
[2]; [3]
  IC50: 500 nM

## CCN1CCN(CCc2ccc(-c3ccc4c(Nc5cc(OC)c(Cl)cc5Cl)c(C#N)cnc4c3)cc2)CC1 [Example 32, 4-(2,4-Dichloro-5-methoxyanilino)-7-{4-[2-(4-ethyl-1-piperazinyl)ethyl]phenyl}-3-quinolinecarbonitrile]
[1]
  IC50: 2.7 nM
[2]; [4]
  IC50: 2000 nM
[2]; [3]
  IC50: 1900 nM

## COc1cc(Nc2c(C#N)cnc3cc(-c4csc(CN5CCOCC5)c4)c(OC)cc23)c(Cl)cc1Cl [Example 36, 4-(2,4-Dichloro-5-methoxyanilino)-6-methoxy-7-[5-(4-morpholinylmethyl)-3-thienyl]-3-quinolinecarbonitrile]
[1]
  IC50: 1.9 nM
[2]; [4]
  IC50: 160 nM
[2]; [3]
  IC50: 200 nM

## COc1cc(Nc2c(C#N)cnc3cc(-c4ccc(CN5CCOCC5)cc4)c(OC)cc23)c(Cl)cc1Cl [Example 37, 4-(2,4-Dichloro-5-methoxyanilino)-6-methoxy-7-[4-(4-molpholinylmethyl)phenyl]-3-quinolinecarbonitrile]
[1]
  IC50: 19 nM
[2]; [4]
  IC50: 1590 nM
[2]; [3]
  IC50: 1490 nM

## COc1cc(Nc2c(C#N)cnc3cc(-c4cccc(CCN5CCOCC5)c4)c(OC)cc23)c(Cl)cc1Cl [Example 38, 4-(2,4-Dichloro-5-methoxyanilino)-6-methoxy-7-{3-[2-(4-morpholinyl)ethyl]phenyl}-3-quinolinecarbonitrile]
[1]
  IC50: 81 nM
[2]; [4]
  IC50: 12700 nM
[2]; [3]
  IC50: 10600 nM

## COc1cc(Nc2c(C#N)cnc3cc(-c4ccc(CN5CCC[C@@H]5C(N)=O)o4)ccc23)c(Cl)cc1Cl [Example 47, (2R)-1-({5-[3-Cyano-4-(2,4-dichloro-5-methoxyanilino)-7-quinolinyl]-2-furyl}methyl)-2-pyrrolidinecarboxamide]
[1]
  IC50: 1.1 nM
[2]; [4]
  IC50: 1170 nM

## COc1cc(Nc2c(C#N)cnc3cc(-c4ccc(C5OCCO5)s4)ccc23)c(Cl)cc1Cl [Example 51, 4-(2,4-Dichloro-5-methoxyanilino)-7-[5-(1,3-dioxolan-2-yl)-2-thienyl]-3-quinolinecarbonitrile]
[1]
  IC50: 8.2 nM
[2]; [4]
  IC50: 420 nM

## COc1cc(Nc2c(C#N)cnc3cc(-c4ccc(CN5CCOCC5)o4)ccc23)c(Cl)cc1Cl [Example 53, 4-(2.4-Dichloro-5-methoxyanilino)-7-[5-(4-morpholinylmethyl)-2-furyl]-3-quinolinecarbonitrile]
[1]
  IC50: 2.9 nM
[2]; [4]
  IC50: 250 nM

## COc1cc(Nc2c(C#N)cnc3cc(-c4ccc(CN5CCSCC5)cc4)ccc23)c(Cl)cc1Cl [Example 153, 4-[(2,4-dichloro-5-methoxyphenyl)amino]-7-[4-(4-thiomorpholinylmethyl)phenyl]-3-quinolinecarbonitrile]
[2]; [4]
  IC50: 2800 nM
[2]; [3]
  IC50: 2700 nM
